Laboratory results published in patent US20110201564A1, “SUBSTITUTED 7-SULFANYLMETHYL, 7-SULFINYLMETHYL AND 7-SULFONYLMETHYL INDOLES AND USE THEREOF” (BAYER SCHERING PHARMA AKTIENGESELLSCHAFT, priority 2008, published 2011).
Read-outs that look alike come from different tables or passages of the source.

Key:
[1] = target: T1, CYP3A4 (Homo sapiens, UniProt P08684); assay: CYP inhibition assay with human liver microsomes; assay type: in vitro ADME
T1 construct: using human liver microsomes (pool from various individuals); from tissue; host or cells: human liver microsomes (pool from various individuals)
T1 sequence (P08684 whole entry): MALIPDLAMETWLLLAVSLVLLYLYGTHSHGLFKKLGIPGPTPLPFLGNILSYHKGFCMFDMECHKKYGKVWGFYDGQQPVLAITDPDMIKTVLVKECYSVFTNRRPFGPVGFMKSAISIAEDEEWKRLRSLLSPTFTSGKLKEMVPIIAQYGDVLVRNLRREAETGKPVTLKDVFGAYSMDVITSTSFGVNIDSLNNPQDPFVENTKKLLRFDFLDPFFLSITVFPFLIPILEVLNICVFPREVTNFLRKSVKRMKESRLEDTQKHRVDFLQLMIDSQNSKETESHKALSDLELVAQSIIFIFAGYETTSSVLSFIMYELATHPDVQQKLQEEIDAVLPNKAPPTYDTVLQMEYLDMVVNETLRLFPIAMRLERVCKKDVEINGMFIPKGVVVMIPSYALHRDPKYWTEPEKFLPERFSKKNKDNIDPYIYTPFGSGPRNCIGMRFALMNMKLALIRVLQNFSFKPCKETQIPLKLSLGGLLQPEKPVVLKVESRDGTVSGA
Summary of the method: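 Pooled human liver microsomes (23-233 μg/mL) incubated 15-20 min at 37° C, pH 7.4 phosphate with NADP+/G6P regenerating system, isoform-specific substrate and six test compound concentrations (top 50 or 20 μM). Metabolites quantified by LC-MS/MS; IC50 versus uninhibited formation. CYP3A4 mechanism-based check: 30 min preincubation before midazolam or testosterone.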

[2] = target: T2, human mineralocorticoid receptor (MR) (Homo sapiens, UniProt P08235); assay: Cellular in vitro assay, GAL4-MR chimera luciferase reporter in CHO K1 cells (inhibitory MR activity); assay type: cell-based; details: antagonism vs aldosterone; CHO K1 GAL4-MR LBD luciferase reporter
T2 construct: expressed in transfected cells; host or cells: CHO K1
T2 sequence (P08235 734-984 limits assumed): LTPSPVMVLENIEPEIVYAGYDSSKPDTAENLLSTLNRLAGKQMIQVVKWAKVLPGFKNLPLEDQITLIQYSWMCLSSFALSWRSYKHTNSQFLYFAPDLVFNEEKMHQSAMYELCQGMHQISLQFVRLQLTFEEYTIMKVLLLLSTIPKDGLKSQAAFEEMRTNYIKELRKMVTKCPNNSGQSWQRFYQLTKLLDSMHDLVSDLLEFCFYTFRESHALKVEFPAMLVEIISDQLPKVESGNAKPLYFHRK
Summary of the method: (§1)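 CHO K1 cells stably expressing GAL4 DNA-binding domain fused to human MR, PR or AR ligand-binding domains plus GAL4-driven firefly luciferase; compounds added 10–30 min before agonist (aldosterone, progesterone or dihydrotestosterone), luciferase read after 5–6 h; IC50 from sigmoidal concentration–response curves.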

[3] = target: T3, androgen receptor (AR) (Homo sapiens, UniProt P10275); assay: Cellular in vitro assay, GAL4-AR chimera luciferase reporter in CHO K1 cells (selectivity); assay type: cell-based; details: antagonism vs dihydrotestosterone; CHO K1 GAL4-AR LBD luciferase reporter
T3 construct: of the androgen receptor (AR, amino acids 667-919); expressed in transfected cells; host or cells: CHO K1
T3 sequence (P10275 668-920): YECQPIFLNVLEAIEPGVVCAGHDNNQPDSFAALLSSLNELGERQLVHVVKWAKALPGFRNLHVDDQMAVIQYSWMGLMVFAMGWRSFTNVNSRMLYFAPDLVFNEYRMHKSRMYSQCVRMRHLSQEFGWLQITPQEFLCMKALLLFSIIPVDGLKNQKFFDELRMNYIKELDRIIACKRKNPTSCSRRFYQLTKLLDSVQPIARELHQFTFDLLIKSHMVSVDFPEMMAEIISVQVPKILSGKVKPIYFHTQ
Summary of the method: as §1

[4] = 30 min preincubation with test compound before substrate, read-out: CYP 3A4 Preincubation, 30 min.
[5] = without preincubation, read-out: CYP 3A4 Coincubation

Row | IC50 [1, 4] [µM] | IC50 [1, 5] [µM] | IC50 [2] [nM] | IC50 [3] [µM] | SMILES
1 | 25.6 | > 40 | 6 | 0.94 | CS(=O)(=O)Cc1cc(F)cc2c(C(c3ccc(C(F)(F)F)cc3F)C3CC3C#N)c[nH]c12 (single isomer, unassigned) [Example 271-1-1, 2-({5-Fluoro-7-[(methylsulfonyl)methyl]-1H-indol-3-yl}[2-fluoro-4-(trifluoro-methyl)phenyl]methyl)cyclopropanecarbonitrile]
2 | 19 | > 20 | 33 | 5.64 | CS(=O)(=O)Cc1cccc2c(C(c3ccc(Cl)cc3)C3CC3(F)F)c[nH]c12 (single isomer, unassigned) [Example 261-1, 3-[(4-Chlorophenyl)(2,2-difluorocyclopropyl)methyl]-7-[(methylsulfonyl)methyl]-1H-indole]
3 | > 20 | > 20 | 130 | 3.22 | CS(=O)(=O)Cc1cccc2c(C(c3ccc(F)cc3)c3ccc(C(F)(F)F)cc3)c[nH]c12 (stereo not shown) [Example 113, 3-{(4-Fluorophenyl) [4-(trifluoromethyl)phenyl]methyl}-7-[(methylsulfonyl)methyl]-1H-indole]
4 | 13.1 | > 20 | 80 | 7.76 | CS(=O)(=O)Cc1cccc2c(C(CCC#N)c3ccc(Cl)cc3F)c[nH]c12 (single isomer, unassigned) [Example 59-1, 4-(4-Chloro-2-fluorophenyl)-4-{7-[(methylsulfonyl)methyl]-1H-indol-3-yl}butanonitrile]

Second part, the molecule before the results:

Row | SMILES | IC50 [1, 4] [µM] | IC50 [1, 5] [µM] | IC50 [2] [nM] | IC50 [3] [µM]
5 | CCC(CCO)(c1ccc(Cl)cc1)c1c[nH]c2c(CS(C)(=O)=O)cccc12 (stereo not shown) [Example 147, 3-(4-Chlorophenyl)-3-{7-[(methylsulfonyl)methyl]-1H-indol-3-yl}pentan-1-ol] | 8.8 | > 20 | 30 | 3.02
6 | CS(=O)(=O)Cc1cc(F)cc2c(C(c3ccc(Cl)cc3F)C3CC3C#N)c[nH]c12 (single isomer, unassigned) [Example 273-1-2, 2-[(4-Chloro-2-fluorophenyl){5-fluoro-7-[(methylsulfonyl)methyl]-1H-indol-3-yl}methyl]cyclopropanecarbonitrile] | 13.7 | > 20 | 6 | 0.98
7 | CS(=O)(=O)Cc1cccc2c(C(CCC#N)c3ccc4c(c3)OC(F)(F)O4)c[nH]c12 (stereo not shown) [Example 169, 4-(2,2-Difluoro-1,3-benzodioxol-5-yl)-4-{7-[(methylsulfonyl)methyl]-1H-indol-3-yl}butanonitrile] | 17 | > 20 | 110 | 2.28
8 | CS(=O)(=O)Cc1cccc2c(C3(C4CC4)CCc4cc(F)ccc43)c[nH]c12 (stereo not shown) [Example 107, 3-(1-Cyclopropyl-5-fluoro-2,3-dihydro-1H-inden-1-yl)-7-[(methylsulfonyl)methyl]-1H-indole] | 12.9 | > 20 | 20 | 3.33
9 | CS(=O)(=O)Cc1cccc2c(C(CCC#N)c3ccc4sccc4c3)c[nH]c12 (stereo not shown) [Example 73, 4-(1-Benzothiophen-5-yl)-4-{7-[(methylsulfonyl)methyl]-1H-indol-3-yl}butanonitrile] | 16.6 | > 20 | 90 | 5.22
10 | CCC(CCC#N)(c1ccc(Cl)cc1)c1c[nH]c2c(CS(C)(=O)=O)cccc12 (stereo not shown) [Example 172, 4-(4-Chlorophenyl)-4-{7-[(methylsulfonyl)methyl]-1H-indol-3-yl}hexanonitrile] | 9.6 | > 20 | 20 | 5.28
